Measured values published in patent US8575091B1, “Amylin analogues and pharmaceutical compositions thereof” (Novo Nordisk A/S, priority 2012, dated 2013).
Read-outs that look alike come from different tables or passages of the source. Numbered stars: 1 amine (or outer) side, 2 acyl side, 3 side chain; on linkers, the order of the positions; unused ones are H or OH. Bridge positions count the residues as written; N and C are the ends. Side chains are listed from the residue outwards. Peptide text beside a SMILES is read from it. * marks the point of attachment. C20 diacid = O=C(O)CCCCCCCCCCCCCCCCCCC(=O)*; γGlu = O=C(O)[C@H](CCC(=O)[*:2])N[*:1]

What was measured:
[1] = molecular target: T1, human amylin receptor (amylin 3(a) receptor: human calcitonin receptor + RAMP-3) (Homo sapiens, UniProt O60896+P30988); experiment: Assay (II)a functional assay, human amylin receptor (CRE luciferase, BHK cells); type: cell-based; conditions: for EC50: read-out: hAmylin-R funct. EC50
T1 construct: expressed in transfected cells
T1 sequence (P30988 25-474): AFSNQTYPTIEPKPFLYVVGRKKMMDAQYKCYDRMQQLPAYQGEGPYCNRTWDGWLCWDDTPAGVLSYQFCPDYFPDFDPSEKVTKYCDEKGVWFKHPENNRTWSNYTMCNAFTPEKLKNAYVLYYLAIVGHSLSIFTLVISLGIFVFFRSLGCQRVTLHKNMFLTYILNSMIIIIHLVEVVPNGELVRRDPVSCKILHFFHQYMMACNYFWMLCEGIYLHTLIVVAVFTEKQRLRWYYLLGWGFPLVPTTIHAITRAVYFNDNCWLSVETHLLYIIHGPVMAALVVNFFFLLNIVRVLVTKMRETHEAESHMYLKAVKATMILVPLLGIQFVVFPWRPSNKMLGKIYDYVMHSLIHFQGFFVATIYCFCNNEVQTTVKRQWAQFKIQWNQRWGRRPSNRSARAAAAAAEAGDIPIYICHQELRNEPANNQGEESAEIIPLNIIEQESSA
T1 sequence (O60896 24-148 partner): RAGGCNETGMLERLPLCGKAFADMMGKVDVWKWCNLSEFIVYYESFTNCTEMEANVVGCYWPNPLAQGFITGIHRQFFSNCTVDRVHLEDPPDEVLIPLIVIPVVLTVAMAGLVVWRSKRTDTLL

[2] = molecular target: T2, human calcitonin receptor (Homo sapiens, UniProt P30988); experiment: Assay (II)a functional assay, human calcitonin receptor (CRE luciferase, BHK cells);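 further: luminescence from a CRE-driven luciferase reporter, read by single photon counting after cells were exposed to test samples for 3 h at 37 °C under 5% CO2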; type: cell-based; conditions: read-out: hCTR funct. EC50
T2 construct: expressed in transfected cells
T2 sequence (P30988 25-474): T1 sequence (P30988 25-474)

human amylin receptor = molecular target: T3, human amylin receptor (Homo sapiens, UniProt O60896+P30988); experiment: Assay (V) binding to the human amylin receptor (SPA, 125I-rat amylin); conditions: for IC50: human amylin receptor membranes, SPA, read-out: hAmylin-R bind IC50
T3 construct: expressed in transfected cells
T3 sequence (P30988 25-474): T1 sequence (P30988 25-474)
T3 sequence (O60896 24-148 partner): T1 sequence (O60896 24-148 partner)
In short: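 IC50, taken as receptor affinity, came from one-site binding competition analysis of scintillation proximity counts. Amylin 3(a)/CRE-luc cell membranes (35 ng/μL final) were mixed with SPA beads (0.05 mg/well) in 50 mM Hepes pH 7.4 containing CaCl2, MgCl2, 0.1% OA and 0.02% Tween20.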

[3] = molecular target: T2, human calcitonin receptor; experiment: Assay (VII) binding to the human calcitonin receptor (SPA, 125I-Calcitonin); conditions: read-out: hCTR bind IC50;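 further: cell membranes coupled to SPA beads, competitive displacement read by scintillation counting, IC50 derived from a one-site competition fit as a measure of receptor affinity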
[4] = Table 7b, human calcitonin receptor binding IC50 divided by human amylin receptor binding IC50
[5] = human binding ratio, included for comparison
[6] = functional assay, human amylin receptor

| Ratio hCT/hAmylin funct. ([1]; Table 6, human functional selectivity (hCTR EC50 / hAmylin-R EC50)) | Ratio hCT/hAmylin funct. ([1]; Table 6a, human functional selectivity (hCTR EC50 / hAmylin-R EC50), at least 5) | Ratio hCT/hAmylin funct. ([1]; Table 6i, hCTR funct. EC50 / hAmylin-R funct. EC50) | EC50 ([1]; Table 6i, human amylin receptor functional) [nM] | Ratio hCT/hAmylin funct. ([1]; Table 6j, hCTR funct. EC50 / hAmylin-R funct. EC50) | Ratio hCT/hAmylin funct. ([1]; Table 6k, hCTR funct. EC50 / hAmylin-R funct. EC50) | EC50 [2] [nM] | Ratio hCT/hAmylin binding (human amylin receptor; [4]) | IC50 (human amylin receptor) [nM] | Ratio hCT/hAmylin binding (human amylin receptor; [5]) | IC50 [3] [nM] | EC50 [1, 6] [nM] | Ratio hCT/hAmylin binding (human amylin receptor; Table 7c, human calcitonin receptor binding IC50 divided by human amylin receptor binding IC50) | Structure (SMILES) |
| --- | --- | --- | --- | --- | --- | --- | --- | --- | --- | --- | --- | --- | --- |
| 9.9 | 9.9 | 9.9 | 0.216 | 9.9 | 9.9 | 2.14 | 18.0 | 0.152 | 18.0 | 2.73 | – | – | CC[C@H](C)[C@H](NC(=O)[C@H](C)NC(=O)CNC(=O)[C@H](Cc1ccccc1)NC(=O)[C@H](CC(N)=O)NC(=O)[C@@H]1CCCN1C(=O)[C@H](CO)NC(=O)[C@H](CO)NC(=O)[C@H](Cc1c[nH]cn1)NC(=O)[C@H](CCCNC(=N)N)NC(=O)[C@H](CC(C)C)NC(=O)[C@H](Cc1ccccc1)NC(=O)[C@H](CCC(=O)O)NC(=O)[C@H](C)NC(=O)[C@H](CC(C)C)NC(=O)[C@H](CCCNC(=N)N)NC(=O)[C@H](CCC(N)=O)NC(=O)[C@@H](NC(=O)[C@H](C)NC(=O)[C@@H]1CSSC[C@H](NC(=O)[C@@H](N)CCCCNC(=O)CC[C@H](NC(=O)CC[C@H](NC(=O)CCCCCCCCCCCCCCCCCCC(=O)O)C(=O)O)C(=O)O)C(=O)N[C@@H](CC(N)=O)C(=O)N[C@@H]([C@@H](C)O)C(=O)N[C@@H](C)C(=O)N[C@@H]([C@@H](C)O)C(=O)N1)[C@@H](C)O)C(=O)N1CCC[C@H]1C(=O)N[C@@H](CO)C(=O)N[C@@H](CO)C(=O)N[C@H](C(=O)N[C@@H](CC(N)=O)C(=O)N[C@H](C(=O)NCC(=O)N1CCC[C@H]1C(=O)N[C@@H](CC(N)=O)C(=O)N[C@H](C(=O)N[C@@H](Cc1ccccc1)C(N)=O)[C@@H](C)O)C(C)C)[C@@H](C)O [Example 127] (H-K([γGlu-γGlu-C20 diacid])CNTATCATQRLAEFLRHSSPNFGAIPSSTNVGPNTF-NH2; disulfide 2-7) |
| – | – | – | – | – | – | 5.58 | – | 0.992 | – | 26.1 | 0.425 | – | CC[C@H](C)[C@H](NC(=O)[C@H](C)NC(=O)CNC(=O)[C@H](Cc1ccccc1)NC(=O)[C@H](CC(N)=O)NC(=O)[C@@H]1CCCN1C(=O)[C@H](CO)NC(=O)[C@H](CO)NC(=O)[C@H](Cc1c[nH]cn1)NC(=O)[C@H](CCCNC(=N)N)NC(=O)[C@H](CC(C)C)NC(=O)[C@H](Cc1ccccc1)NC(=O)[C@H](CCC(=O)O)NC(=O)[C@H](C)NC(=O)[C@H](CC(C)C)NC(=O)[C@H](CCCNC(=N)N)NC(=O)[C@H](CCC(N)=O)NC(=O)[C@@H](NC(=O)[C@H](C)NC(=O)[C@@H]1CSSC[C@H](NC(=O)[C@@H](N)CCCCNC(=O)CC[C@H](NC(=O)CCCCCCCCCCCCCCCCCCC(=O)O)C(=O)O)C(=O)N[C@@H](CC(N)=O)C(=O)N[C@@H]([C@@H](C)O)C(=O)N[C@@H](C)C(=O)N[C@@H]([C@@H](C)O)C(=O)N1)[C@@H](C)O)C(=O)N1CCC[C@H]1C(=O)N[C@@H](CO)C(=O)N[C@@H](CO)C(=O)N[C@H](C(=O)N[C@@H](CC(N)=O)C(=O)N[C@H](C(=O)NCC(=O)N[C@@H](CO)C(=O)N[C@@H](Cc1c[nH]cn1)C(=O)N[C@H](C(=O)N[C@@H](Cc1ccc(O)cc1)C(N)=O)[C@@H](C)O)C(C)C)[C@@H](C)O [Example 128] (H-K([γGlu-C20 diacid])CNTATCATQRLAEFLRHSSPNFGAIPSSTNVGSHTY-NH2; disulfide 2-7) |
| – | – | – | – | – | – | 7.28 | 280.0 | 0.453 | 280.0 | 127 | 0.162 | 280.0 | CC[C@H](C)[C@H](NC(=O)[C@H](C)NC(=O)CNC(=O)[C@H](Cc1ccccc1)NC(=O)[C@H](CC(N)=O)NC(=O)[C@@H]1CCCN1C(=O)[C@H](CO)NC(=O)[C@H](CO)NC(=O)[C@H](Cc1c[nH]cn1)NC(=O)[C@H](CCCNC(=N)N)NC(=O)[C@H](CC(C)C)NC(=O)[C@H](Cc1ccccc1)NC(=O)[C@H](CC(=O)O)NC(=O)[C@H](C)NC(=O)[C@H](CC(C)C)NC(=O)[C@H](CCCNC(=N)N)NC(=O)[C@H](CCC(N)=O)NC(=O)[C@@H](NC(=O)[C@H](C)NC(=O)[C@@H]1CSSC[C@H](NC(=O)[C@@H](N)CCCCNC(=O)CC[C@H](NC(=O)CC[C@H](NC(=O)CCCCCCCCCCCCCCCCCCC(=O)O)C(=O)O)C(=O)O)C(=O)N[C@@H](CC(N)=O)C(=O)N[C@@H]([C@@H](C)O)C(=O)N[C@@H](C)C(=O)N[C@@H]([C@@H](C)O)C(=O)N1)[C@@H](C)O)C(=O)N1CCC[C@H]1C(=O)N[C@@H](CO)C(=O)N[C@@H](CO)C(=O)N[C@H](C(=O)N[C@@H](CC(N)=O)C(=O)N[C@H](C(=O)NCC(=O)N1CCC[C@H]1C(=O)N[C@@H](CCCNC(=N)N)C(=O)N[C@H](C(=O)N[C@@H](Cc1ccc(O)cc1)C(N)=O)[C@@H](C)O)C(C)C)[C@@H](C)O [Example 130] (H-K([γGlu-γGlu-C20 diacid])CNTATCATQRLADFLRHSSPNFGAIPSSTNVGPRTY-NH2; disulfide 2-7) |
| – | – | – | – | – | – | 100 | – | 0.365 | – | 112 | 0.383 | – | CC[C@H](C)[C@H](NC(=O)[C@H](C)NC(=O)CNC(=O)[C@H](Cc1ccccc1)NC(=O)[C@H](CC(N)=O)NC(=O)[C@@H]1CCCN1C(=O)[C@H](CO)NC(=O)[C@H](CO)NC(=O)[C@H](Cc1c[nH]cn1)NC(=O)[C@H](CCCNC(=N)N)NC(=O)[C@H](CC(C)C)NC(=O)[C@H](Cc1ccccc1)NC(=O)[C@@H](CC(=O)O)NC(=O)[C@H](C)NC(=O)[C@H](CC(C)C)NC(=O)[C@H](CCCNC(=N)N)NC(=O)[C@H](CCC(N)=O)NC(=O)[C@@H](NC(=O)[C@H](C)NC(=O)[C@@H]1CSSC[C@H](NC(=O)[C@@H](N)CCCCNC(=O)CC[C@H](NC(=O)CC[C@H](NC(=O)CCCCCCCCCCCCCCCCCCC(=O)O)C(=O)O)C(=O)O)C(=O)N[C@@H](CC(N)=O)C(=O)N[C@@H]([C@@H](C)O)C(=O)N[C@@H](C)C(=O)N[C@@H]([C@@H](C)O)C(=O)N1)[C@@H](C)O)C(=O)N1CCC[C@H]1C(=O)N[C@@H](CO)C(=O)N[C@@H](CO)C(=O)N[C@H](C(=O)N[C@@H](CC(N)=O)C(=O)N[C@H](C(=O)NCC(=O)N[C@@H](CO)C(=O)N[C@@H](CCCNC(=N)N)C(=O)N[C@H](C(=O)N[C@@H](Cc1ccc(O)cc1)C(N)=O)[C@@H](C)O)C(C)C)[C@@H](C)O [Example 131] |
